These results are taken from article PMC6100259, “Insights into Structure-Activity Relationships of 3-Arylhydrazonoindolin-2-One Derivatives for Their Multitarget Activity on β-Amyloid Aggregation and Neurotoxicity” (Molecules : A Journal of Synthetic Chemistry and Natural …, 2018).

In brackets after ≈: the same amount, converted by molar mass. Where two headings read alike, the source gives them in different places.

On the set-up of data set [1]: method as in PMID 28801274. Conditions: pH 7.4 and 37 °C; cited from earlier work.
On the set-up of data set [2]: method as in PMID 28801274. Conditions: Tris/HCl buffer, pH 7.4 at 25 °C; cited from earlier work.
Data set [3] concerns the target T1, Aβ40 peptide (Homo sapiens, UniProt P05067).
T1 construct: we preferred using Aβ40 peptide
As to the kind of experiment: Inhibition of Aβ40 aggregation, ThT fluorescence-based method. In kind it is biochemical. How it is done: In vitro inhibition of Aβ aggregation was assessed through a ThT fluorescence-based method, with the use of 2% 1,1,1,3,3,3-hexafluoroisopropanol (HFIP) as aggregation enhancer. In this medium-throughput assay, we preferred using Aβ40 peptide, being more manageable than Aβ42 and less prone to the formation of preaggregates. Samples of Aβ were co-incubated with test molecules in PBS at 100 µM concentration and the antiaggregating activities were measured after 2 h of incubation at 25 °C. For compounds showing >80% Aβ40 aggregation inhibition, IC50s were determined.
(§1) The spectrofluorimetric assays, measuring ThT fluorescence in the presence of Aβ, were done as previously described. Briefly, coincubation samples were prepared as described above (Section 2.2 and Section 2.3) in 96-well black, non-binding microplates (Greiner Bio-One GmbH, Frickenhausen, Germany). Fluorimetric reads were performed in a multiplate reader Infinite M1000 Pro (Tecan, Cernusco sul Naviglio, Italy). Each concentration point was run in triplicate. CD ellipticity measures were performed as detailed in ref. [20], following the increase of the negative band at 215 nm as indicative of β-sheet arrangement.

In a further data set the test system is AChE. Set-up: method as in PMID 28801274. Conditions: read-out: IC50 AChE inhibition; cited from earlier work.
Data set [4] concerns the target T1, Aβ40 peptide. Set-up: method as in PMID 21144622. Conditions: read-out: IC50 inhibition of Aβ40 aggregation; hit compound, previously reported; cited from earlier work.
Data set [5] in a line: Lipophilicity by RP-HPLC (log k'w). Conditions: RP-HPLC C18, MeOH/10 mM ammonium formate buffer pH 4.5, extrapolated to 100% aqueous mobile phase, 25 °C. In kind it is physicochemical. The method, then:
To place on a more quantitative basis the above SAR trends, the lipophilicity of a number of isatin arylhydrazone derivatives was measured by an RP-HPLC method. The polycratic capacity factors (log k’w) were determined (details in the Experimental Section). Lipophilicity descriptors (i.e., 1-octanol–water partition coefficients) were also calculated (CLOGPs) using two computational tools (Bio-Loom software, v. 1.7 and ACDLabs software, release 10.0). The ACDLabs software was used also for calculating descriptors of polarizability and size, namely molar refractivity (CMR) and molar volume (MV). The experimental lipophilicity parameters (log k’w), along with CMR and MV, are reported in Table 6 for 18 compounds achieving finite IC50s (<100 µM) in the Aβ aggregation assay.
The lipophilicity parameters were determined by an RP-HPLC technique. Methanol solutions of the investigated hydrazone compounds (0.5 mg/mL) were injected into an Agilent 1260 infinity HPLC system (Agilent Technologies Italia, Milan), equipped with a diode array detector (DAD), and a Phenomenex Kinetex C18 column (150 × 4.6 mm, 5 μ, Phenomenex Italy s.r.l., Castel Maggiore, BO, Italy), and eluted at different mobile phase compositions (0.05 increments of MeOH volume fraction in 10 mM ammonium formate buffer at pH 4.5, ranging ϕ between 0.85 and 0.30). All RP-HPLC measurements were carried out at 25 ± 1 °C, at a flow rate of 1.0 mL/min, and at 254 nm wavelength.
The logarithm of capacity factors (log k′ = log (tR − t0)/t0) of each compound at different mobile phase compositions have been calculated; tR represents the retention time of the solute and t0 is the column dead time, measured as the elution time of a KNO3 solution in MeOH. For each compound, the log k′ values increased linearly with decreasing MeOH volume fraction. Logarithms of capacity factors extrapolated to the 100% aqueous mobile phase (log k′w) were calculated from the linear regressions on at least five data points (r^2 > 0.975).

Data set [6] relates to SH-SY5Y cells. Nature of the data set: Antioxidant activity, H2O2-induced ROS production, DCFH-DA assay. In kind it is cell-based. Conditions: Homo sapiens, 20 µM compound, 100 µM hydrogen peroxide, read-out: ROS scavenging, maximum effect relative to effect of 100 µM quercetin. The method, then:
(§2) Protection from Aβ42-induced cytotoxicity was measured for compound 28 in a conventional cell-based assay, measuring cell viability by means of MTT reduction. Antioxidant activity of 28 was assessed in an H2O2-induced oxidation cell model. Reactive oxygen species (ROS) production was detected by means of a spectrofluorometric measure of the fluorescent probe 2′,7′-dichlorofluorescein (DCF), formed by oxidation of 2′,7′-dichlorodihydrofluorescein (DCFH). In both assays, human SH-SY5Y neuroblastoma cell line was used.
Intracellular ROS production was evaluated using an oxidation-sensitive fluorescent probe, 2′,7′-dichlorodihydrofluorescin diacetate (DCFH-DA; Sigma-Aldrich). Viable SHSY5Y cells were seeded in a black 96-well cell culture plate for 24 h, then the cells were incubated in DMEM supplemented with different concentration (0 to 20 μM) of 28 for 1 h. After washing, DCFH-DA (50 μM final concentration) was added directly to each well, and the plate was incubated at 37 °C in 5% CO2 for 0.5 h. […] The formation of fluorescent dichlorofluorescein (DCF) due to oxidation of DCFH in the presence of ROS was read directly in each well at an excitation wavelength of 485 nm and an emission wavelength of 530 nm using a multilabel plate reader Victor3 V (Perkin Elmer), with DMSO medium as the control.

The subject of data set [7] is SH-SY5Y cells. Nature of the data set: Protection from Aβ42-induced cytotoxicity, MTT assay. In kind it is cell-based, human. Conditions: 5 µM Aβ42 co-incubated with equimolar 5 µM compound, within two days. How it is done:
as §2
Cytoprotection from Aβ42-induced neurotoxicity and from ROS generation was assessed in SH-SY5Y cells as already described. At least three independent experiments with six replicates (n ≥ 18) were carried out, and the results were averaged. Briefly, for MTT assay, SH-SY5Y cells were cultured in DMEM-Dulbecco’s modified Eagle’s medium (Sigma-Aldrich), grown to 70% confluence and seeded for experiment in 96-well plates at a density of 10,000 cells/well. Cultured cells were added with a DMEM solution of Aβ42, alone or in mixture with 28 (5 μM final concentration of both) and incubated at 37 °C in 5% CO2. […] After removal of solution and addition of DMSO, the absorbance of product formazan produced from MTT was measured at 570 nm using a multilabel plate counter Victor3 V (Perkin Elmer, Milan, Italy), with DMSO medium as the blank solution.
In general terms: Tetrazolium assays rely on reduction of a dye to a coloured formazan, in cell work by metabolically active cells.

Data set [8] can be described thus: Aqueous solubility in Tris/HCl buffer. In kind it is physicochemical. Conditions: pH 7.4 at 25 °C. The source says:
Based on data in Table 1, Table 2, Table 3, Table 4 and Table 5, compound 28 was selected for further biological and biophysical studies, aimed at elucidating the mechanism of disruption of Aβ aggregation, and evaluating the activity in biochemical assays related to neurodegeneration, and cytoprotection in a cell model of Aβ toxicity. Starting from the evidence that a bulky substituent led to a net improvement of antiaggregating activity (Table 5), we chose the N^1-cyclopropyl derivative 28 as the best compromise between in vitro activity and aqueous solubility.

The target in a further data set is Aβ42 peptide (Homo sapiens, UniProt P05067). As to the kind of experiment: Kinetics of Aβ42 fibrillization (ThT fluorescence and CD). Conditions: 50 µM Aβ42 with 20 µM compound, PBS 2% ethanol, 37 °C, after one week. In kind it is biochemical. How it is done: For ThT and circular dichroism (CD) time-course measures of Aβ aggregation (50 µM), alone or in the presence of 28 (20 µM), samples were prepared in PBS containing 2% v/v ethanol as the cosolvent, and incubated at 37 °C. Aβ42 peptide was preferred, being the principal responsible of amyloid burden in AD brain. Kinetics of amyloid aggregation of Aβ42 was followed by means of ThT fluorescence and CD absorption. In the latter case, we monitored the increase of the negative band at 215 nm, probing the random coil to β-sheet transition in folding peptide. Results depicted in Figure 4 show a fast fibrillization of self-aggregating peptide (dotted black line), with fibrils already detectable in large amount in the first 48 h of incubation.
Chain of Aβ42 peptide (P05067 672-713 limits assumed): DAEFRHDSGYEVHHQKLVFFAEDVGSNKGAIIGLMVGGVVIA
as §1

T1 sequence (P05067 672-711 limits assumed): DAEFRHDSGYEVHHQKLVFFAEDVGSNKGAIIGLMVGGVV

By half-life is commonly meant the time in which the quantity being followed falls by half. Usually solubility stands for how much of the substance goes into solution per volume. Turning to `COc1ccc2c(c1)/C(=N/Nc1ccc(C(C)C)cc1)C(=O)N2` [Compound 1, (3Z)-5-methoxy-1H-indole-2,3-dione 3-[(4-isopropylphenyl)hydrazone]], the half-life in data set [1] is recorded as 24 h. Besides, in [2], the solubility is 71 µM (≈ 22 µg/mL). In addition, the IC50 was 398 nM on Aβ40 peptide [3] (Aβ40 aggregation inhibition, read-out: pIC50, Aβ antiaggregating potency (converted)); 6250 nM with AChE; 430 ± 40 nM at Aβ40 peptide [4]. In [5], the “log k'w” value is given as 5.44.

Turning to `COc1ccc2c(c1)/C(=N/Nc1ccc(C(C)C)cc1)C(=O)N2C1CC1` [Compound 28, (Z)-1-Cyclopropyl-3-(2-(4-isopropylphenyl)hydrazono)-5-methoxyindolin-2-one], the Emax at 20 µM in the data set on SH-SY5Y cells [6] is approximately 50%. The “cell viability (MTT reduction)” value with SH-SY5Y cells [7] was “fully viable”. In addition, the IC50 against Aβ40 peptide [3] came to 800 ± 130 nM. Also, the solubility in [8] was 21 µM (≈ 7.34 µg/mL). On Aβ42 peptide, the “fibril content compared with that of control peptide” value is on record as “about 30%”. In addition, the “log k'w” value in data set [5] was 6.36.
